Tests used:
[1] = biological target: T1, BCR-KIT BaF3 cells (Homo sapiens, UniProt P10721); test: BaF3 BCR-KIT cell proliferation assay (ATPlite); assay type: cell-based; conditions: read-out: Inhibition of Cell Proliferation IC50, BCR/BaF3 Kit
T1 construct: fused on or other part: P11274 (Breakpoint cluster region protein)
In short: (§1)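 Growth inhibition over 3 days at 37 °C; IC50 from ATPlite luminescence, 8 concentrations (1:3 steps, max 10 μM). BaF3 fusion lines were tested without IL-3.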

[2] = biological target: T2, BCR-NTRK1 BaF3 cells (Homo sapiens, UniProt P04629); test: BaF3 BCR-NTRK1 cell proliferation assay (ATPlite); assay type: cell-based; conditions: read-out: Inhibition of Cell Proliferation IC50, BCR/BaF3 TrkA
T2 construct: fused on or other part: P11274 (Breakpoint cluster region protein)
In short: as §1

[3] = biological target: T3, BCR-NTRK3 BaF3 cells (Homo sapiens, UniProt Q16288); test: BaF3 BCR-NTRK3 cell proliferation assay (ATPlite); assay type: cell-based; conditions: read-out: Inhibition of Cell Proliferation IC50, BCR/BaF3 TrkC
T3 construct: fused on or other part: P11274 (Breakpoint cluster region protein)
In short: as §1

[4] = biological target: CYP2C9 (Homo sapiens, UniProt P11712); test: CYP2C9 inhibition (fluorescent substrate MFC); assay type: in vitro ADME; conditions: read-out: Cyp IC50 2C9
In short: (§2)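 Test compounds, 10-point 1:1 serial dilutions in NADPH-regenerating cofactor mix, were preincubated 10 min at 37° C before recombinant enzyme and fluorogenic substrate reactions at 37° C (CYP1A2 15 min; CYP2C9 45 min; CYP2C19, 2D6 30 min). Product fluorescence was read at 409 ex with 460 em (1A2, 2C19) or 530 em (2C9, 2D6), and IC50 fitted from signal versus concentration.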

[5] = biological target: CYP3A4(BFC) (Homo sapiens, UniProt P08684); test: CYP3A4(BFC) inhibition; assay type: in vitro ADME; conditions: CYP3A4, substrate BFC; read-out: Cyp IC50 3A4(BFC)
In short: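 Inhibition of human CYP3A4 with the BFC substrate was measured by fluorescence loss of the metabolized product. Compounds at 100 mM in DMSO were diluted 1 μL into 82 μL acetonitrile, then 11 μL into 204 μL cofactor mix with NADPH regeneration solutions, and serially diluted 1:1 to 10 points. Plates were incubated 30 min at 37° C and read at 409 ex/460 em to obtain IC50.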

[6] = biological target: CYP2D6 (Homo sapiens, UniProt P10635); test: CYP2D6 inhibition (fluorescent substrate AMMC); assay type: in vitro ADME; conditions: read-out: Cyp IC50 2D6
In short: as §2

T2 sequence (P04629 510-781): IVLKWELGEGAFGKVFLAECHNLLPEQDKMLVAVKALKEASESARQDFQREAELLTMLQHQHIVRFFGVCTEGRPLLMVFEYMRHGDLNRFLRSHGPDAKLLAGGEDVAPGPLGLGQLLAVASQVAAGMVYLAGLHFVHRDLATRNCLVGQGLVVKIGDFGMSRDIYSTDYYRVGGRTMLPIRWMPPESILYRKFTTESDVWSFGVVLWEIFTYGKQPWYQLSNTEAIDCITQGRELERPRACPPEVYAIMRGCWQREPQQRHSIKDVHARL
T3 sequence (Q16288 whole entry, the tested form may be a part): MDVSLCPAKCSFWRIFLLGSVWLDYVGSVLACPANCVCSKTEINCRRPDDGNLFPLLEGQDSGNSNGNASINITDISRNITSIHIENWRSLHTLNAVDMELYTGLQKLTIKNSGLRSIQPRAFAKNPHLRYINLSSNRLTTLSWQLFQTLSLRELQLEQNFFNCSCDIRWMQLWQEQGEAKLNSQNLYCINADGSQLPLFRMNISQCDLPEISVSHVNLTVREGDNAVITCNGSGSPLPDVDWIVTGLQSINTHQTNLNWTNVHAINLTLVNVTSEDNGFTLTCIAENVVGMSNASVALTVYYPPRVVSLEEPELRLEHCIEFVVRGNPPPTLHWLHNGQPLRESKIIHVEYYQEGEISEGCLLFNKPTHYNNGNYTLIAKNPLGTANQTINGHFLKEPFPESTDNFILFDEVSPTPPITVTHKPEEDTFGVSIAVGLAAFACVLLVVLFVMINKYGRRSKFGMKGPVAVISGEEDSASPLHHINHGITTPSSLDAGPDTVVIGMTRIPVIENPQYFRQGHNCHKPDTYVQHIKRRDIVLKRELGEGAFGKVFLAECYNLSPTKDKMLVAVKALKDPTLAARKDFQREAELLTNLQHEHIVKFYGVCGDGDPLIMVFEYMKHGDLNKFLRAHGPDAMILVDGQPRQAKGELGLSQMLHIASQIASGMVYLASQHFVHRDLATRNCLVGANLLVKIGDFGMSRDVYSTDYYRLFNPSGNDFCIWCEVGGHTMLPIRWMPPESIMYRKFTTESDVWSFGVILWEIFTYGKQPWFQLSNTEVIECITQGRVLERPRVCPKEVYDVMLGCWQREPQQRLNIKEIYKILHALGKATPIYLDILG
Chain of CYP2C9 (P11712 whole entry): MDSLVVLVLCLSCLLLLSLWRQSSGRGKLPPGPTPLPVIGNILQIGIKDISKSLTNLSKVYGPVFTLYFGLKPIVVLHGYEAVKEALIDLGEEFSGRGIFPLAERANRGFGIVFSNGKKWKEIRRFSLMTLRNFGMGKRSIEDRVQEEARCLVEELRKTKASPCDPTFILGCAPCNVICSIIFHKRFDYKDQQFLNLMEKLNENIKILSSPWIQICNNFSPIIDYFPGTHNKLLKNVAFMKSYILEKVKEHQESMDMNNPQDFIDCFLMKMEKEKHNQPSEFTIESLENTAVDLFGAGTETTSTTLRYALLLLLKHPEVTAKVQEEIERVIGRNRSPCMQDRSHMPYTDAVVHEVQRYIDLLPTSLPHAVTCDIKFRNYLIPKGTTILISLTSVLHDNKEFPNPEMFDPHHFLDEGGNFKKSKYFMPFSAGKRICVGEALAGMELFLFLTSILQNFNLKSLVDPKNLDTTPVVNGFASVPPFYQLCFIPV
Chain of CYP3A4(BFC) (P08684 whole entry): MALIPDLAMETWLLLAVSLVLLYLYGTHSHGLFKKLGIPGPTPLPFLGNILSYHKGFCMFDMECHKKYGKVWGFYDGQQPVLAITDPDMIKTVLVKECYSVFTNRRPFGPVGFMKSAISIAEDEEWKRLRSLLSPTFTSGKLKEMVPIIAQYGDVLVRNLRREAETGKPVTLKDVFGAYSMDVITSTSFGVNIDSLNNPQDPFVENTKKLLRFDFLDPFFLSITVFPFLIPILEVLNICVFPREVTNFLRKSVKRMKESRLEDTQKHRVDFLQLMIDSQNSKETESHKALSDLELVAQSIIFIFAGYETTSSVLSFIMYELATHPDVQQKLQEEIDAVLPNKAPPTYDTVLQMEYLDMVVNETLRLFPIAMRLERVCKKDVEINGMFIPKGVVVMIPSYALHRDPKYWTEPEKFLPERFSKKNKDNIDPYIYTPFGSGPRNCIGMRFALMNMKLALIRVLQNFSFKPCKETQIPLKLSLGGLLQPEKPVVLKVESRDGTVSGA
Chain of CYP2D6 (P10635 whole entry): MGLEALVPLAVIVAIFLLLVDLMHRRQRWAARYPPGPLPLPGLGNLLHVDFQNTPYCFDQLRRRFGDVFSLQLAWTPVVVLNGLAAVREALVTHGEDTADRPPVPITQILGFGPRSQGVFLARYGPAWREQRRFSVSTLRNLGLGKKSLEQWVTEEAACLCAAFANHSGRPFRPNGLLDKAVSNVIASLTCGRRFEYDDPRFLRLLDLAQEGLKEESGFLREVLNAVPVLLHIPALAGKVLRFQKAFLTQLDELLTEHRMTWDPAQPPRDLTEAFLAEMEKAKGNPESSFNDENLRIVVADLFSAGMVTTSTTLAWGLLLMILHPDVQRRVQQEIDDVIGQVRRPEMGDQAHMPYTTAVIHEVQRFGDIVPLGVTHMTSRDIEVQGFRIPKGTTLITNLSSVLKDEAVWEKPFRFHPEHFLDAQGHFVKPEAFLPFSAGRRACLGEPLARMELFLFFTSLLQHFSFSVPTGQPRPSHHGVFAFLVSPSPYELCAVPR
T1 sequence (P10721 589-937): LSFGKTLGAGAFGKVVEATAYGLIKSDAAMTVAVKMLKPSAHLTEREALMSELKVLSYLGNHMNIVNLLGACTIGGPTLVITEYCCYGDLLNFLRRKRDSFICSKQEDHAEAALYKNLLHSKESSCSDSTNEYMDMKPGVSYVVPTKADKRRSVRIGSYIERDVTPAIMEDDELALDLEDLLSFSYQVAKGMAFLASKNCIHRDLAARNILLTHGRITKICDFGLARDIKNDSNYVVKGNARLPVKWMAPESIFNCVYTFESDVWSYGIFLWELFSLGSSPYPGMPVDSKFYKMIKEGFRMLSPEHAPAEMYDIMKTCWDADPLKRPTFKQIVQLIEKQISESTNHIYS

Row | Structure (SMILES) | IC50 [1] | IC50 [2] | IC50 [3] | IC50 [4] | IC50 [5] | IC50 [6]
1 | Clc1cnc2[nH]cc(Cc3cnc(NC4CCCC4)nc3)c2c1 [Compound P-3003, [5-(5-Chloro-1H-pyrrolo[2,3-b]pyridin-3-ylmethyl)-pyrimidin-2-yl]-cyclopentyl-amine] | > 1 µM |  |  |  |  | 
2 | CCOc1ccc(Nc2ccc(Cc3c[nH]c4ncnc(C5CC5)c34)c(F)n2)cn1 [Compound P-4026, [5-(4-Cyclopropyl-7H-pyrrolo[2,3-d]pyrimidin-5-ylmethyl)-6-fluoro-pyridin-2-yl]-(6-ethoxy-pyridin-3-yl)-amine] | < 1 µM | < 0.1 µM | < 0.01 µM |  |  | 
3 | COc1cc(Nc2ncc(Cc3c[nH]c4ncc(C)cc34)cn2)ccc1F [Compound P-3022, (4-Fluoro-3-methoxy-phenyl)-[5-(5-methyl-1H-pyrrolo[2,3-b]pyridin-3-ylmethyl)-pyrimidin-2-yl]-amine] | < 0.1 µM | < 1 µM | < 1 µM |  |  | 
4 | CCn1cc(Nc2ccc(Cc3c[nH]c4ncnc(C5CC5)c34)c(F)n2)cn1 [Compound P-4036, [5-(4-Cyclopropyl-7H-pyrrolo[2,3-d]pyrimidin-5-ylmethyl)-6-fluoro-pyridin-2-yl]-(1-ethyl-1H-pyrazol-4-yl)-amine] | < 1 µM | < 1 µM | < 0.1 µM | 5 to 10 µM | 5 to 10 µM | > 10 µM
5 | CCn1cc(Nc2ccc(C(=O)c3c[nH]c4ncnc(C5CC5)c34)c(F)n2)cn1 [Compound P-4037, (4-Cyclopropyl-7H-pyrrolo[2,3-d]pyrimidin-5-yl)-[6-(1-ethyl-1H-pyrazol-4-ylamino)-2-fluoro-pyridin-3-yl]-methanone] | < 0.1 µM | < 0.1 µM |  | 5 to 10 µM | 5 to 10 µM | > 10 µM
6 | Cc1ccc(Nc2ccc(Cc3c[nH]c4ncnc(C5CC5)c34)c(F)n2)cn1 [Compound P-4030, [5-(4-Cyclopropyl-7H-pyrrolo[2,3-d]pyrimidin-5-ylmethyl)-6-fluoro-pyridin-2-yl]-(6-methyl-pyridin-3-yl)-amine] | < 1 µM | < 1 µM | < 0.1 µM | > 10 µM | > 10 µM | > 10 µM
7 | Fc1nc(Nc2ccc(C3CC3)nc2)ccc1Cc1c[nH]c2ncccc12 [Compound P-3053, (6-Cyclopropyl-pyridin-3-yl)-[6-fluoro-5-(1H-pyrrolo[2,3-b]pyridin-3-ylmethyl)-pyridin-2-yl]-amine] |  | < 0.1 µM | < 0.01 µM | > 10 µM | > 10 µM | > 10 µM
8 | Cc1cncc(Nc2ccc(C(=O)c3c[nH]c4ncnc(C5CC5)c34)c(F)n2)c1 [Compound P-4039, (4-Cyclopropyl-7H-pyrrolo[2,3-d]pyrimidin-5-yl)-[2-fluoro-6-(5-methyl-pyridin-3-ylamino)-pyridin-3-yl]-methanone] | < 1 µM | < 0.1 µM | < 0.1 µM |  |  | 
9 | Cc1cnc2[nH]cc(C(=O)c3ccc(Nc4ccc(C5CC5)nc4)nc3F)c2c1 [Compound P-3051, [6-(6-Cyclopropyl-pyridin-3-ylamino)-2-fluoro-pyridin-3-yl]-(5-methyl-1H-pyrrolo[2,3-b]pyridin-3-yl)-methanone] | < 1 µM | < 0.1 µM |  | > 10 µM | > 10 µM | > 10 µM
10 | Clc1cnc2[nH]cc(Cc3cnc(NC4CCCCCC4)nc3)c2c1 [Compound P-3006, [5-(5-Chloro-1H-pyrrolo[2,3-b]pyridin-3-ylmethyl)-pyrimidin-2-yl]-cycloheptyl-amine] | > 1 µM | < 20 µM | > 10 µM | > 10 µM | > 10 µM | > 10 µM
11 | Fc1cccc(Nc2ncc(Cc3c[nH]c4ncc(Cl)cc34)cn2)c1 [Compound P-3017, [5-(5-Chloro-1H-pyrrolo[2,3-b]pyridin-3-ylmethyl)-pyrimidin-2-yl]-(3-fluoro-phenyl)-amine] | > 1 µM | > 10 µM | > 10 µM |  |  | 
12 | Cc1ccc(Nc2ccc(C(=O)c3c[nH]c4ncnc(C5CC5)c34)c(F)n2)cn1 [Compound P-4031, (4-Cyclopropyl-7H-pyrrolo[2,3-d]pyrimidin-5-yl)-[2-fluoro-6-(6-methyl-pyridin-3-ylamino)-pyridin-3-yl]-methanone] | < 1 µM | < 0.1 µM | < 0.01 µM | > 10 µM | > 10 µM | < 5 µM
13 | CCc1ccc(Nc2ccc(C(=O)c3c[nH]c4ncc(C)cc34)c(F)n2)cn1 [Compound P-3049, [6-(6-Ethyl-pyridin-3-ylamino)-2-fluoro-pyridin-3-yl]-(5-methyl-1H-pyrrolo[2,3-b]pyridin-3-yl)-methanone] | < 0.1 µM | < 0.01 µM |  | > 10 µM | > 10 µM | > 10 µM
14 | Clc1cnc2[nH]cc(Cc3cnc(NC4CCCCC4)nc3)c2c1 [Compound P-3001, [5-(5-chloro-1H-pyrrolo[2,3-b]pyridin-3-ylmethyl)-pyrimidin-2-yl]-cyclohexyl-amine] | > 1 µM | > 10 µM | > 10 µM | > 10 µM | > 10 µM | > 10 µM
15 | Cc1cnc2[nH]cc(Cc3cnc(Nc4ccc(C(F)(F)F)nc4)nc3)c2c1 [Compound P-3018, [5-(5-Methyl-1H-pyrrolo[2,3-b]pyridin-3-ylmethyl)-pyrimidin-2-yl]-(6-trifluoromethyl-pyridin-3-yl)-amine] | < 0.1 µM | < 1 µM | < 0.1 µM | > 10 µM | < 5 µM | > 10 µM
16 | CCOc1ccc(Nc2ccc(C(=O)c3c[nH]c4ncnc(C5CC5)c34)c(F)n2)cn1 [Compound P-4027, (4-Cyclopropyl-7H-pyrrolo[2,3-d]pyrimidin-5-yl)-[6-(6-ethoxy-pyridin-3-ylamino)-2-fluoro-pyridin-3-yl]-methanone] | < 1 µM | < 0.1 µM | < 0.01 µM |  |  | 
17 | O=C(c1ccc(Nc2ccc(C3CC3)nc2)nc1F)c1c[nH]c2ncccc12 [Compound P-3052, [6-(6-Cyclopropyl-pyridin-3-ylamino)-2-fluoro-pyridin-3-yl]-(1H-pyrrolo[2,3-b]pyridin-3-yl)-methanone] |  | < 0.1 µM | < 0.01 µM | 5 to 10 µM | > 10 µM | > 10 µM
18 | CCOc1ccc(Nc2ccc(C(=O)c3c[nH]c4ncnc(C)c34)c(F)n2)cn1 [Compound P-4032, [6-(6-Ethoxy-pyridin-3-ylamino)-2-fluoro-pyridin-3-yl]-(4-methyl-7H-pyrrolo[2,3-d]pyrimidin-5-yl)-methanone] | < 1 µM | < 0.1 µM | < 0.1 µM |  |  | 
19 | Cc1cncc(Nc2ccc(Cc3c[nH]c4ncnc(C5CC5)c34)c(F)n2)c1 [Compound P-4038, [5-(4-Cyclopropyl-7H-pyrrolo[2,3-d]pyrimidin-5-ylmethyl)-6-fluoro-pyridin-2-yl]-(5-methyl-pyridin-3-yl)-amine] | < 1 µM | < 1 µM | < 0.1 µM |  |  | 
20 | COc1ccc(Nc2ncc(Cc3c[nH]c4ncc(C)cc34)cn2)cc1F [Compound P-3023, (3-Fluoro-4-methoxy-phenyl)-[5-(5-methyl-1H-pyrrolo[2,3-b]pyridin-3-ylmethyl)-pyrimidin-2-yl]-amine] | < 0.1 µM | < 1 µM | < 1 µM |  |  | 
21 | Clc1cnc2[nH]cc(Cc3cnc(NC4CC4)nc3)c2c1 [Compound P-3005, [5-(5-Chloro-1H-pyrrolo[2,3-b]pyridin-3-ylmethyl)-pyrimidin-2-yl]-cyclopropyl-amine] | > 1 µM | > 10 µM | > 10 µM |  |  | 
22 | CCc1ccc(Nc2ccc(Cc3c[nH]c4ncc(C)cc34)c(F)n2)cn1 [Compound P-3048, (6-Ethyl-pyridin-3-yl)-[6-fluoro-5-(5-methyl-1H-pyrrolo[2,3-b]pyridin-3-ylmethyl)-pyridin-2-yl]-amine] | < 0.1 µM | < 0.1 µM |  | > 10 µM | > 10 µM | > 10 µM
23 | Cc1cnc2[nH]cc(Cc3ccc(Nc4ccc(C5CC5)nc4)nc3F)c2c1 [Compound P-3050, (6-Cyclopropyl-pyridin-3-yl)-[6-fluoro-5-(5-methyl-1H-pyrrolo[2,3-b]pyridin-3-ylmethyl)-pyridin-2-yl]-amine] | < 1 µM | < 0.1 µM |  | > 10 µM | > 10 µM | > 10 µM
24 | COc1ccccc1Nc1ncc(Cc2c[nH]c3ncc(Cl)cc23)cn1 [Compound P-3016, [5-(5-Chloro-1H-pyrrolo[2,3-b]pyridin-3-ylmethyl)-pyrimidin-2-yl]-(2-methoxy-phenyl)-amine] | > 1 µM | > 10 µM | > 10 µM |  |  | 

From patent US8901118B2, “Compounds and methods for kinase modulation, and indications therefor” (Plexxikon Inc., priority 2010, dated 2014)
